Reference: patent US20150031668A1, “CHROMAN DERIVATIVES AS TRPM8 INHIBITORS” (AMGEN INC., priority 2013, published 2015)
pIC50: −log10 of the molar value.

Key:
[1] = molecular target: T1, human TRPM8 (Homo sapiens, UniProt Q7Z2W7); test: Luminescence readout assay for measuring intracellular calcium (aequorin, CHO cells expressing human TRPM8; icilin, L-menthol or cold activation); type: cell-based; settings: CHO cells expressing human TRPM8, icilin activation (1 μM), aequorin luminescence; read-out: hTRPM8 IC50
T1 construct: expressed in transfected cells; host or cells: Chinese hamster ovary (CHO) cells, T-REx tetracycline-inducible expression system (Invitrogen); co-transfected with pcDNA3.1 aequorin
Procedure, shortened: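 Activation was by 1 μM icilin, 100 μM L-menthol (test compound 2.5 min ahead) or cold buffer below 10° C (compound 1 min ahead). Calcium rise measured as aequorin luminescence in CHO cells with tetracycline-inducible human TRPM8.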

[2] = tested on: icilin induced wet-dog shakes; test: Inhibition of icilin induced shaking (wet-dog shakes) in rats; type: in vivo, male Sprague Dawley rats; settings: po, rat
Procedure: Inhibition of Icilin Induced Shaking in Rats
Example compounds at doses ranging from 0.01 to 3 mg/kg (p.o, suspended in 5% Tween80/Oralplus or suspended in 2% HPMC-1% Tween-80 pH2.2 with MSA, 5 mL/kg) can be administered to male Sprague Dawley rats (200-300 g, Harlan, n=6-8/treatment) 2 h before icilin to assess the ability to block the spontaneous wet-dog shake phenomena induced by icilin (i.p., suspended in 100% PEG400 at 0.5 mg/kg, 1 mL/kg or p.o., suspended in 2% HPMC-1% Tween-80 at 3 mg/kg, 2.5 mL/kg). Spontaneous wet-dog shakes may be counted manually by two blinded observers or using LABORAS automation (Metris) for 30 min post-icilin. The synthesized and prophetic example compounds may be measured using these procedures and will be found to reduce the spontaneous wet dog shake phenomena induced by icilin.

T1 sequence (Q7Z2W7 whole entry): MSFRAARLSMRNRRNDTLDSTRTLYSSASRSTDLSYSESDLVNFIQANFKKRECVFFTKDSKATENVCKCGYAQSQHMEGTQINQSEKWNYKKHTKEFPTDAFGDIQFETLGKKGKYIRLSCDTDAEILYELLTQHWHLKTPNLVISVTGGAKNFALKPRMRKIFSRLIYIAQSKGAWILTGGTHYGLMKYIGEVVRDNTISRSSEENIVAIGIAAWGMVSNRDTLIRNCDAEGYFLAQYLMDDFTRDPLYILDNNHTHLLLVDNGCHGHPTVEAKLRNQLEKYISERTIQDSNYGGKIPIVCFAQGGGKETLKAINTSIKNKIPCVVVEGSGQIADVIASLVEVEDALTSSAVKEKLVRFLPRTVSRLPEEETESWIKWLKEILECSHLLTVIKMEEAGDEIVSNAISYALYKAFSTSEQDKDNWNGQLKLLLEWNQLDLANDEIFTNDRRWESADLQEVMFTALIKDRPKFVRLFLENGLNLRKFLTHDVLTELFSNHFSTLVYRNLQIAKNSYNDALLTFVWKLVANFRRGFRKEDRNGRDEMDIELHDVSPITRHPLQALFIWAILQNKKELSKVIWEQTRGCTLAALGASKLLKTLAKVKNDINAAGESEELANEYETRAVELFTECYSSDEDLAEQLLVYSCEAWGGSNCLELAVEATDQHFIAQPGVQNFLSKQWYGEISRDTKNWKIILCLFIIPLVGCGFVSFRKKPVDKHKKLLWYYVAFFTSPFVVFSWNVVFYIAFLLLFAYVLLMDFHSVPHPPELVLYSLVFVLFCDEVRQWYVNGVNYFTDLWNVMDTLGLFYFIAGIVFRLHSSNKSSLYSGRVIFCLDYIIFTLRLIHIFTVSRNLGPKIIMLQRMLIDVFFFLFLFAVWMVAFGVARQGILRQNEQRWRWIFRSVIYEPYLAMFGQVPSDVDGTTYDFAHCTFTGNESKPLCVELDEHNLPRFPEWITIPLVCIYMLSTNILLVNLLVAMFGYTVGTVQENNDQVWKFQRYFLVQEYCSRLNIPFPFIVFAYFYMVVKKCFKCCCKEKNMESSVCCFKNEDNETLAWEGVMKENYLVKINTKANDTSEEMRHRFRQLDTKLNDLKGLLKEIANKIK

## N#Cc1ccc(-c2ccc([C@@]3(NC(=O)c4ccc5oc(=O)[nH]c5c4)CCOc4cccnc43)cc2)cc1 [Example 155, (S)—N-(4-(4′-cyano-[1,1′-biphenyl]-4-yl)-3,4-dihydro-2H-pyrano[3,2-b]pyridin-4-yl)-2-oxo-2,3-dihydrobenzo[d]oxazole-5-carboxamide 2,2,2-trifluoroacetate]
[1]
  pIC50: 7.80
[2]
  inhibition in vivo at 1 mg/kg: 60%

## O=C(N[C@]1(c2ccc(OC(F)(F)F)c(F)c2)CCOc2cccnc21)c1ccc(CO)cc1 [Example 158, (S)—N-(4-(3-fluoro-4-(trifluoromethoxy)phenyl)-3,4-dihydro-2H-pyrano[3,2-b]pyridin-4-yl)-4-(hydroxymethyl)benzamide]
[1]
  pIC50: 8.22
[2]
  inhibition in vivo at 1 mg/kg: 92%

## O=C(N[C@]1(c2ccc(C(F)(F)F)c(F)c2)CCOc2cccnc21)c1ccc(=O)[nH]c1 [Example 170, (S)-N-(4-(3-fluoro-4-(trifluoromethyl)phenyl)-3,4-dihydro-2H-pyrano[3,2-b]pyridin-4-yl)-6-oxo-1,6-dihydropyridine-3-carboxamide]
[1]
  pIC50: 7.68
[2]
  inhibition in vivo at 1 mg/kg: 90%

## O=C(O)c1ccc(C(=O)N[C@]2(c3ccc(OC(F)(F)F)c(F)c3)CCOc3cccnc32)cc1 [Example 204, (S)-4-((4-(3-fluoro-4-(trifluoromethoxy)phenyl)-3,4-dihydro-2H-pyrano[3,2-b]pyridin-4-yl)carbamoyl) benzoic acid]
[1]
  pIC50: 8.15
[2]
  inhibition in vivo at 1 mg/kg: 98%

## O=C(N[C@]1(c2ccc(OC(F)(F)F)c(F)c2)CCOc2cccnc21)c1ccc(-c2noc(=O)[nH]2)cn1 [Example 283, (S)—N-(4-(3-fluoro-4-(trifluoromethoxy)phenyl)-3,4-dihydro-2H-pyrano[3,2-b]pyridin-4-yl)-5-(5-oxo-4,5-dihydro-1,2,4-oxadiazol-3-yl)picolinamide]
[1]
  pIC50: 7.36
[2]
  inhibition in vivo at 1 mg/kg: 78%

## C=Cc1cc(C(=O)N[C@]2(c3ccc(OC(F)(F)F)c(F)c3)CCOc3cccnc32)ccc1C(=O)O [Example 289, (S)-4-((4-(3-fluoro-4-(trifluoromethoxy)phenyl)-3,4-dihydro-2H-pyrano[3,2-b]pyridin-4-yl)carbamoyl)-2-vinylbenzoic acid]
[1]
  pIC50: 7.74
[2]
  inhibition in vivo at 1 mg/kg: 93%

## CCc1cc(C(=O)N[C@]2(c3ccc(OC(F)(F)F)c(F)c3)CCOc3cccnc32)ccc1C(=O)O [Example 291, (S)-2-ethyl-4-((4-(3-fluoro-4-(trifluoromethoxy)phenyl)-3,4-dihydro-2H-pyrano[3,2-b]pyridin-4-yl)carbamoyl)benzoic acid]
[1]
  pIC50: 7.82
[2]
  inhibition in vivo at 1 mg/kg: 97%

## Cc1nc(C(=O)N[C@]2(c3ccc(OC(F)(F)F)c(F)c3)CCOc3cccnc32)ccc1C(=O)O [Example 310, (S)-6-((4-(3-fluoro-4-(trifluoro-methoxy)phenyl)-3,4-dihydro-2H-pyrano[3,2-b]pyridin-4-yl)carbamoyl)-2-methylnicotinic acid]
[1]
  pIC50: 8.10
[2]
  inhibition in vivo at 1 mg/kg: 98%

## O=C(O)c1ccc(C(=O)N[C@]2(c3ccc(C(F)(F)F)c(F)c3)CCOc3cccnc32)nc1 [Example 313, (S)-6-((4-(3-fluoro-4-(trifluoro-methyl)phenyl)-3,4-dihydro-2H-pyrano[3,2-b]pyridin-4-yl)carbamoyl) nicotinic acid]
[1]
  pIC50: 7.85
[2]
  inhibition in vivo at 1 mg/kg: 99%

## COc1cc(C(=O)O)ccc1C(=O)N[C@]1(c2ccc(OC(F)(F)F)c(F)c2)CCOc2cccnc21 [Example 314, (S)-4-((4-(3-fluoro-4-(trifluoromethoxy)phenyl)-3,4-dihydro-2H-pyrano[3,2-b]pyridin-4-yl)carbamoyl)-3-methoxybenzoic acid]
[1]
  pIC50: 8.40
[2]
  inhibition in vivo at 1 mg/kg: 99%

## O=C(O)c1ccc(C(=O)N[C@]2(c3ccc(Cl)c(Cl)c3)CCOc3cccnc32)nc1 [Example 318, (S)-6-((4-(3,4-dichloro-phenyl)-3,4-dihydro-2H-pyrano[3,2-b]pyridin-4-yl)carbamoyl) nicotinic acid]
[1]
  pIC50: 7.60
[2]
  inhibition in vivo at 1 mg/kg: 86%

## Cc1cc(C(=O)N[C@]2(c3ccc(OC(F)(F)F)cc3)CCOc3cccnc32)ccc1C(=O)O [Example 319, (S)-2-methyl-4-((4-(4-(trifluoro-methoxy)phenyl)-3,4-dihydro-2H-pyrano[3,2-b]pyridin-4-yl)carbamoyl) benzoic acid]
[1]
  pIC50: 7.82
[2]; dose 0.3 mg/kg
  inhibition in vivo at 0.3 mg/kg: 75%

## Nc1cc(C(=O)N[C@]2(c3ccc(OC(F)(F)F)c(F)c3)CCOc3cccnc32)ccc1C(=O)O [Example 321, (S)-2-amino-4-((4-(3-fluoro-4-(trifluoro-methoxy)phenyl)-3,4-dihydro-2H-pyrano[3,2-b]pyridin-4-yl)carbamoyl) benzoic acid]
[1]
  pIC50: 7.92
[2]
  inhibition in vivo at 1 mg/kg: 95%

## O=C(O)c1ccc(C(=O)N[C@]2(c3ccc(C(F)(F)F)cc3)CCOc3cccnc32)nc1 [Example 326, (S)-6-((4-(4-(trifluoro-methyl)phenyl)-3,4-dihydro-2H-pyrano[3,2-b]pyridin-4-yl)carbamoyl) nicotinic acid]
[1]
  pIC50: 7.48
[2]
  inhibition in vivo at 1 mg/kg: 98%

## O=C(O)c1ccc(C(=O)N[C@]2(c3ccc(OC(F)(F)F)cc3)CCOc3cccnc32)nc1 [Example 327, (S)-6-((4-(4-(trifluoro-methoxy)phenyl)-3,4-dihydro-2H-pyrano[3,2-b]pyridin-4-yl)carbamoyl) nicotinic acid]
[1]
  pIC50: 7.64
[2]
  inhibition in vivo at 1 mg/kg: 93%

## Cc1cc(C(=O)N[C@]2(c3ccc(OC(F)(F)F)c(F)c3)CCOc3cccnc32)ccc1C(=O)O [Example 332, (S)-4-((4-(3-fluoro-4-(trifluoromethoxy)phenyl)-3,4-dihydro-2H-pyrano[3,2-b]pyridin-4-yl)carbamoyl)-2-methylbenzoic acid]
[1]
  pIC50: 7.80
[2]
  inhibition in vivo at 1 mg/kg: 99%
